The values that follow come from US9212168B2 (priority 2011, dated 2015).

A value given as a limit tells only on which side of the number the result lay.

In the first test the test system is HCV genotype 1a replicon. Nature of the test: HCV genotype 1a replicon assay (NS3 protease activity readout). Type of test: cell-based, hepatitis C virus. The conditions noted are these: HCV genotype 1a replicon. As for the experimental part: Assay 2: HCV Genotype 1a Replicon Assay
The HCV genotype 1a replicon cell line was obtained from Apath LLC (APC89; Huh7.5 cell background). This subgenomic replicon contains the N-terminus of the HCV core protein fused to the neomycin-resistance selectable marker. The EMCV IRES lies downstream and drives expression of the non-structural proteins NS3-NS5B. Compound potencies were determined using the NS3-specific protease activity in lysates as a measurement of compound inhibition of replicon levels.
Cells were grown at 37° C. in a 5% CO2 humidified incubator in DMEM (Invitrogen) with 10% FBS (HyClone), 1×NEAA (Invitrogen), 1× Pen-Strep (Invitrogen), and 850 μg/mL G418 (Invitrogen). On day 1 of the assay, cells were plated at 15,000 cells/well in black 96-well tissue culture plates (Costar) in 200 μL media lacking G418. Four hours later, once the cells had adhered, the media was removed and replaced with media (no G418) containing dose-responses of test compounds. Compounds were initially diluted in DMSO and then diluted another 200× in media to bring the final DMSO concentration down to 0.5%. The cells were incubated with test compounds for 48 or 72 hours. At the end of the incubation period, media and compound were removed from the plates.
To determine the NS3-specific protease activity in lysates, the cells were lysed at room temperature in 50 μL/well of 50 mM Hepes pH 7.5, 150 mM NaCl, 15% Glycerol, 0.15% Triton X-100, 10 mM DTT for 20 minutes with shaking. 50 μL of an NS3/4a protease-specific FRET substrate (Anaspec RET S1 Cat#22991) was then added to the wells at a final concentration of 15 μM. The plates were incubated at 37° C. for 20 minutes, which corresponds to a timepoint at which the protease activity is still in the linear phase. Protease activity was determined by measuring fluorescence (Excitation: 340 nm; Emission: 509 nm).
To analyze the data, the fluorescence was plotted vs. the compound concentration, and EC50 values were determined from a 4-parameter robust fit model using GraphPad Prism software.
Consider `COC(=O)NC(C(=O)N1CC(C)CC1c1nc(-c2ccc(-c3ccc(NC(=O)c4ccc(N5CCN(C(=O)C(C)(C)CO)CC5C)nc4)cc3OC(F)(F)F)cc2)c[nH]1)C1CCOCC1` (stereo not shown) [Example 13-32], for which the “Genotype 1a” value was “D (D represents pEC50>10 (EC50<0.1 nM))”.

As to `COC(=O)N[C@H](C(=O)N1C[C@@H](O)C[C@H]1c1nc(-c2ccc(-c3cc(Cl)c(NC(=O)c4ccc(N5CCN(C(=O)C(C)(C)C)C[C@H]5C)nc4)cc3OC(F)(F)F)cc2)c[nH]1)C(C)C` [Example 26-8], the “Genotype 1a” value was “C (C represents pEC50 between and 9 and about 10, (EC50 between 1 nM and 0.1 nM))”.

Turning to `COC(=O)N[C@H](C(=O)N1C[C@@H](OC)C[C@H]1c1nc(-c2ccc(-c3cc(Cl)c(NC(=O)c4ccc(N5CCN(C(=O)C(C)(C)CO)C[C@H]5C)nc4)cc3C(F)(F)F)cc2)c[nH]1)C1CCOCC1` [Example 19-13], the “Genotype 1a” value is “D (D represents pEC50>10 (EC50<0.1 nM))”.

With `COC(=O)N[C@H](C(=O)N1C[C@@H](C)C[C@H]1c1nc(-c2ccc(-c3cc(F)c(NC(=O)c4ccc(N5CCN(C(=O)C6CC6)C[C@H]5C)nc4)cc3F)cc2)c[nH]1)C(C)C` [Example 1-83], the “Genotype 1a” value was “C (C represents pEC50 between and 9 and about 10, (EC50 between 1 nM and 0.1 nM))”.

For the compound `COC(=O)N[C@H](C(=O)N1C[C@@H](C)C[C@H]1c1nc(-c2ccc(-c3cc(Cl)c(C(=O)Nc4ccc(N5CCN(C(=O)C(C)(C)C)C[C@H]5C)nc4)cc3OC(F)(F)F)cc2)c(Cl)[nH]1)C(C)C` [Example 4-47], the “Genotype 1a” value was “C (C represents pEC50 between and 9 and about 10, (EC50 between 1 nM and 0.1 nM))”.

For `COC(=O)N[C@H](C(=O)N1C[C@@H](OC)C[C@H]1c1nc(-c2ccc(-c3ccc(NC(=O)c4ccc(N5CCN(C(=O)C(C)(C)CO)C[C@H]5C)nc4)cc3OC(F)(F)F)cc2)c[nH]1)C(C)C` [Example 27-7], the “Genotype 1a” value was “D (D represents pEC50>10 (EC50<0.1 nM))”.

Regarding `CNC(=O)N1CCN(c2ccc(NC(=O)c3ccc(-c4ccc(-c5c[nH]c([C@@H]6C[C@H](C)CN6C(=O)[C@@H](NC(=O)OC)C(C)C)n5)cc4)c(OC(F)(F)F)c3)cn2)[C@H](C)C1` [Example 4-34], the “Genotype 1a” value is “C (C represents pEC50 between and 9 and about 10, (EC50 between 1 nM and 0.1 nM))”.

Regarding `COC(=O)N[C@H](C(=O)N1C[C@@H](C)C[C@H]1c1nc(-c2ccc(-c3cc(Cl)c(NC(=O)c4ccc(N5CCN(C(=O)C6CC67CC7)C[C@H]5C)nc4)cc3C(F)(F)F)cc2)c[nH]1)C(C)C` (stereo partly shown) [Example 1-89], the “Genotype 1a” value is “D (D represents pEC50>10 (EC50<0.1 nM))”.

On to `COC(=O)N[C@H](C(=O)N1C[C@@H](C)C[C@H]1c1nc(-c2ccc(-c3cc(F)c(C(=O)Nc4ccc(N5CCN(C(=O)C(C)(C)C)C[C@H]5C)nc4)cc3OC(F)(F)F)cc2)c[nH]1)C(C)C` [Example 4-41], for which the “Genotype 1a” value was “C (C represents pEC50 between and 9 and about 10, (EC50 between 1 nM and 0.1 nM))”.

On to `COC(=O)NC(C(=O)N1CC(C)CC1c1nc(-c2ccc(-c3ccc(NC(=O)c4ccc(N5CCN(C(=O)C(C)(C)C)CC5C)nc4)cc3OC(F)(F)F)cc2)c[nH]1)C(C)O` (stereo not shown) [Example 13-13], for which the “Genotype 1a” value is “D (D represents pEC50>10 (EC50<0.1 nM))”.

Staying with this test, now noted: Hepatitis C virus, read-out: Genotype 1a, HCV genotype 1a replicon.
With `COC(=O)N[C@H](C(=O)N1CC(C)(C)C[C@H]1c1nc(-c2ccc(-c3ccc(C(=O)Nc4ccc(N5CCN(C(=O)C(C)(C)C)C[C@H]5C)nc4)cc3OC(F)(F)F)cc2)c[nH]1)C(C)C` [Example 6-23], the EC50 was 1 to 10 nM.

Take `COC(=O)N[C@H](C(=O)N1C[C@@H](C)C[C@H]1c1nc(-c2ccc(-c3cc(Cl)c(NC(=O)c4ccc(N5CCN(C(=O)C6CCC6(C)C)C[C@H]5C)nc4)cc3OC(F)(F)F)cc2)c[nH]1)C(C)C` (stereo partly shown) [Example 12-21]: the EC50 was less than 0.1 nM.

For the compound `COCC(=O)N1CCC[C@@]1(C)C(=O)N1CCN(c2ccc(NC(=O)c3ccc(-c4ccc(-c5c[nH]c([C@@H]6C[C@@H]7CCCC[C@@H]7N6C(=O)[C@@H](NC(=O)OC)C(C)C)n5)cc4)c(OC(F)(F)F)c3)cn2)[C@H](C)C1` [Example 6-13], the EC50 is less than 0.1 nM.
